{"source": "patent US20100210635A1", "about": "“RENIN INHIBITORS” (Takeda Pharmaceutical Company Limited, priority 2006, published 2010)"}
{"target": "T1, Recombinant human renin (Homo sapiens, UniProt P00797)", "T1 construct": "isolate the active form (residues 67-406); made in house; host or cells: FreeStyle 293-F cells (transient expression of pcDNA3.1(+)/hREN)", "T1 sequence (P00797 67-406)": "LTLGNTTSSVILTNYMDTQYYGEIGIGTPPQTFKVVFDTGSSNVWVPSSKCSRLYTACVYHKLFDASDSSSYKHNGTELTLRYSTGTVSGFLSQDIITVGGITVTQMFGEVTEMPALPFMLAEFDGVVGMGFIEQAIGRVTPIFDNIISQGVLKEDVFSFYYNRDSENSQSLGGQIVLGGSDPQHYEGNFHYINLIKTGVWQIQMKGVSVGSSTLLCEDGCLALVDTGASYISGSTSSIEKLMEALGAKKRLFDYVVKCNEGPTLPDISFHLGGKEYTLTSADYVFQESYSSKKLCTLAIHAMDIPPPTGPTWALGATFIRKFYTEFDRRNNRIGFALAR", "assay": "In vitro enzymatic activity assay of Renin inhibitors (fluorescence, QXL520/HiLyteFluo488 peptide substrate)", "type": "biochemical", "conditions": "not given", "source_text": "(§1) Test compounds in varying concentrations may be reacted with recombinant human renin in the presence of substrate, e.g., QXL520-γ-Abu-Ile-His-Pro-Phe-His-Leu-Val-Ile-His-Thr-Lys (HiLyteFluo488)-Arg-OH (Anaspec, San Jose, Calif.). The reaction can be followed kinetically using fluorescence (excitation λ=485 nm; emission λ=538 nm). Inhibition constants (IC50) may be calculated by non-linear curve fitting of the compound concentrations and fluorescence intensities to the standard IC50 equation.\n(§2) Solutions of test compounds in varying concentrations (<2 mM final concentration) are prepared in dimethyl sulfoxide (DMSO) and then diluted into assay buffer comprising 50 mM Hepes, 1 mM EDTA, 1 mM DTT, 0.1 mg/ml BSA, 0.01% Brij35, pH 7.4. Alternatively, the assay can be performed with a high BSA concentration, wherein the buffer contains an additional 2% BSA.\n(§3) Recombinant human renin (3 nM final concentration) is added to the dilutions and pre-incubated with the compounds for 10 minutes at 37° C. As described in Examples A-C above, human Renin can be obtained by expressing preprorenin (residue 1-406) in mammalian cells, treating the prorenin (residues 24-406) contained in the culture supernatant with trypsin, and isolate the active form (residues 67-406). After pre-incubation, the reaction is initiated with 1 μM of substrate QXL520-γ-Abu-Ile-His-Pro-Phe-His-Leu-Val-Ile-His-Thr-Lys (HiLyteFluo488)-Arg-OH (Anaspec, San Jose, Calif.). The final DMSO in the assay is 5%. The total volume of the reaction mixture is 20 μL, which can be placed on Greiner 384-well small volume plates.\n(§4) Renin activity may be determined via fluorescence (excitation λ=485 nm; emission λ=538 nm), e.g., on a Molecular Devices SPECTROmax GEMINI XPS. The fluorescence intensity is determined upon the addition of substrate and determined again after incubation at 37° C. for one hour. The fluorescence intensity of a blank (no inhibition) using vehicle alone is also determined. Renin activity is linearly proportional to the change in fluorescence observed (final−initial).\n(§5) The percent inhibition of Renin at a given compound concentration is defined as:\n(§6) 100%×[1−(Fcompound/Fblank)]\n(§7) where Fcompound is the observed fluorescence at a given concentration of test compound and Fblank is the observed fluorescence in the presence of vehicle alone.\n(§8) The pIC50 value (negative log of the molar concentration of the compound that produces 50% inhibition) of a test compound is calculated by non-linear least squares curve fitting of the equation: […]\n(§9) to percent inhibition versus compound concentration. The 50% inhibitory concentration (IC50) of a test compound is calculated by raising 10 to the negative pIC50 (10^−pIC50).", "units": {"IC50": "µM"}}
{"smiles": "CCN(CC)C(=O)Oc1ccc(C[C@@H]2CNCCN2C(=O)CCc2ccccc2Oc2ccccc2)cc1", "note": "[Example 74, (R)-4-((1-(3-(2-phenoxyphenyl)propanoyl)piperazin-2-yl)methyl)-phenyl diethylcarbamate]", "IC50": "0.5 to 5"}
{"smiles": "O=C(Oc1ccc(C[C@@H]2CNCCN2C(=O)CCc2ccccc2Oc2ccccc2)cc1)N1CCOCC1", "note": "[Example 73, (R)-4-((1-(3-(2-phenoxyphenyl)propanoyl)piperazin-2-yl)methyl)-phenyl morpholine-4-carboxylate]", "IC50": "0.5 to 5"}
{"target": "T1, Recombinant human renin", "assay": "In vitro enzymatic activity assay of Renin inhibitors (fluorescence, QXL520/HiLyteFluo488 peptide substrate)", "type": "biochemical", "conditions": "recombinant human renin 3 nM, 1 μM substrate, 37° C., pH 7.4; values given as ranges; read-out: IC50 of Exemplified Compounds Against Renin", "source_text": "as §1, §2, §3, §4, §5, §6, §7, §8, §9", "units": {"IC50": "µM"}}
{"smiles": "CC(=O)NCCc1ccccc1Cc1ccccc1CCC(=O)N1CCNC[C@H]1Cc1ccc(O)cc1", "note": "[Example 88, (R)—N-(2-(2-(3-(2-(4-hydroxybenzyl)piperazin-1-yl)-3-oxopropyl)benzyl)phenethyl)acetamide]", "IC50": "< 0.5"}
{"smiles": "Cc1nc(-c2ccc(Cl)cc2)c(CCC(=O)N2CCNC[C@H]2Cc2ccccc2)o1", "note": "[Example 54, (R)-1-(2-benzylpiperazin-1-yl)-3-(4-(4-chlorophenyl)-2-methyloxazol-5-yl)propan-1-one]", "IC50": "5 to 50"}
{"smiles": "CC(=O)NCCc1ccccc1Oc1ccc(C)cc1CCC(=O)N1CCNC[C@H]1Cc1ccccc1", "note": "[Example 26, (R)—N-(2-(2-(3-(2-Benzylpiperazin-1-yl)-3-oxopropyl)-4-methylphenoxy)phenethyl)acetamide]", "IC50": "< 0.5"}
{"smiles": "CC(=O)NCc1ccccc1Oc1ccccc1CCC(=O)N1CCNC[C@H]1Cc1ccccc1", "note": "[Example 29, (R)—N-(2-(2-(3-(2-Benzylpiperazin-1-yl)-3-oxopropyl)phenoxy)benzyl)acetamide]", "IC50": "< 0.5"}
{"smiles": "COc1ccccc1OCC(=O)N1CCNC[C@H]1Cc1ccccc1", "note": "[Example 57, (R)-1-(2-benzylpiperazin-1-yl)-2-(2-methoxyphenoxy)ethanone]", "IC50": "> 50"}
{"smiles": "CC1(C)CC(CC(=O)N2CCNC[C@H]2Cc2ccccc2)(c2ccccc2)CCO1", "note": "(stereo partly drawn) [Example 20, 1-((R)-2-Benzylpiperazin-1-yl)-2-(2,2-dimethyl-4-phenyltetrahydro-2H-pyran-4-yl)ethanone]", "IC50": "0.5 to 5"}
{"smiles": "O=C(CCc1ccccc1OCCCO)N1CCNC[C@H]1Cc1ccccc1", "note": "[Example 76, (R)-1-(2-benzylpiperazin-1-yl)-3-(2-(3-hydroxypropoxy)phenyl)-propan-1-one]", "IC50": "0.5 to 5"}
{"smiles": "NC(=O)CCc1ccccc1Oc1ccccc1CCC(=O)N1CCNC[C@H]1Cc1ccccc1", "note": "[Example 83, (R)-3-(2-(2-(3-(2-benzylpiperazin-1-yl)-3-oxopropyl)phenoxy)phenyl)propanamide]", "IC50": "< 0.5"}
{"smiles": "O=C(O)CCc1ccccc1Oc1ccccc1CCC(=O)N1CCNC[C@H]1Cc1ccccc1", "note": "[Example 82, (R)-3-(2-(2-(3-(2-Benzylpiperazin-1-yl)-3-oxopropyl)phenoxy)phenyl)propanoic acid]", "IC50": "0.5 to 5"}
{"smiles": "O=C(COc1cccc(Cc2ccccc2)c1)N1CCNC[C@H]1Cc1ccccc1", "note": "[Example 62, (R)-2-(3-benzylphenoxy)-1-(2-benzylpiperazin-1-yl)ethanone]", "IC50": "5 to 50"}
{"smiles": "O=C(CCc1ccccc1Oc1ccccc1)N1CCNC[C@H]1Cc1ccc(OCc2nnn[nH]2)cc1", "note": "[Example 85, (R)-1-(2-(4-((1H-tetrazol-5-yl)methoxy)benzyl)piperazin-1-yl)-3-(2-phenoxyphenyl)propan-1-one]", "IC50": "< 0.5"}
{"smiles": "O=C(CCC1(c2ccccc2)CCCCC1=O)N1CCNC[C@H]1Cc1ccccc1", "note": "(stereo partly drawn) [Example 52, 2-(3-((R)-2-benzylpiperazin-1-yl)-3-oxopropyl)-2-phenylcyclohexanone]", "IC50": "5 to 50"}
{"smiles": "O=C(Oc1ccccc1CCC(=O)N1CCNC[C@H]1Cc1ccccc1)c1ccccc1", "note": "[Example 21, (R)-2-(3-(2-Benzylpiperazin-1-yl)-3-oxopropyl)phenyl benzoate]", "IC50": "0.5 to 5"}
{"smiles": "CC(=O)NCCc1ccccc1Cc1ccccc1CCC(=O)N1CCNC[C@H]1Cc1ccc(OCC(=O)NS(C)(=O)=O)cc1", "note": "[Example 91, (R)-2-(4-((1-(3-(2-(2-(2-acetamidoethyl)benzyl)phenyl)propanoyl)piperazin-2-yl)methyl)phenoxy)-N-(methylsulfonyl)acetamide]", "IC50": "< 0.5"}
{"smiles": "O=C(NC1(CC(=O)N2CCNC[C@H]2Cc2ccccc2)CCCCC1)c1ccccc1", "note": "[Example 64, (R)—N-(1-(2-(2-benzylpiperazin-1-yl)-2-oxoethyl)cyclohexyl)benzamide]", "IC50": "5 to 50"}
{"smiles": "O=C(C(Cc1ccccc1)c1ccccc1)N1CCNC[C@H]1Cc1ccccc1", "note": "(stereo partly drawn) [Example 6, 1-((R)-2-Benzylpiperazin-1-yl)-2,3-diphenylpropan-1-one]", "IC50": "0.5 to 5"}
{"smiles": "CC(=O)NCCCc1ccccc1Oc1ccccc1CCC(=O)N1CCNC[C@H]1Cc1ccccc1", "note": "[Example 48, (R)—N-(3-(2-(2-(3-(2-benzylpiperazin-1-yl)-3-oxopropyl)phenoxy)-phenyl)propyl)acetamide]", "IC50": "0.5 to 5"}
{"smiles": "CC(=O)NCc1cc(C)ccc1Oc1cc(C)ccc1CCC(=O)N1CCNC[C@H]1Cc1ccccc1", "note": "[Example 46, (R)—N-(2-(2-(3-(2-benzylpiperazin-1-yl)-3-oxopropyl)-5-methylphenoxy)-5-methylbenzyl)acetamide]", "IC50": "< 0.5"}
{"smiles": "O=C(CC(c1ccccc1)c1ccccc1)N1CCNC[C@H]1Cc1ccccc1", "note": "[Example 2, (R)-1-(2-Benzylpiperazin-1-yl)-3,3-diphenylpropan-1-one]", "IC50": "0.5 to 5"}
{"smiles": "COc1ccc(Oc2ccccc2CCC(=O)N2CCNC[C@H]2Cc2ccccc2)c(CNC(C)=O)c1", "note": "[Example 41, (R)—N-(2-(2-(3-(2-benzylpiperazin-1-yl)-3-oxopropyl)phenoxy)-5-methoxybenzyl)acetamide]", "IC50": "< 0.5"}
{"smiles": "CC(=O)NCc1ccc(C)nc1Oc1cc(C)ccc1CCC(=O)N1CCNC[C@H]1Cc1ccccc1", "note": "[Example 44, (R)—N-((2-(2-(3-(2-benzylpiperazin-1-yl)-3-oxopropyl)-5-methylphenoxy)-6-methylpyridin-3-yl)methyl)acetamide]", "IC50": "0.5 to 5"}
{"smiles": "C[C@@H](CC(=O)N1CCNC[C@H]1Cc1ccccc1)c1ccccc1", "note": "[Example 18, (S)-1-((R)-2-Benzylpiperazin-1-yl)-3-phenylbutan-1-one]", "IC50": "5 to 50"}
{"smiles": "CC(=O)NCc1cc(C(F)(F)F)ccc1Oc1ccc(C)cc1CCC(=O)N1CCNC[C@H]1Cc1ccccc1", "note": "[Example 47, (R)—N-(2-(2-(3-(2-benzylpiperazin-1-yl)-3-oxopropyl)-4-methylphenoxy)-5-(trifluoromethyl)benzyl)acetamide]", "IC50": "0.5 to 5"}
{"smiles": "CC(=O)NCCc1cc(C)ccc1Oc1ccc(C)cc1CCC(=O)N1CCNC[C@H]1Cc1ccccc1", "note": "[Example 25, (R)—N-(2-(2-(3-(2-Benzylpiperazin-1-yl)-3-oxopropyl)-4-methylphenoxy)-1-methylphenethyl)acetamide]", "IC50": "< 0.5"}
{"smiles": "COC(=O)COc1ccc(C[C@@H]2CNCCN2C(=O)CCc2ccccc2Oc2ccccc2)cc1", "note": "[Example 69, (R)-methyl 2-(4-((1-(3-(2-phenoxyphenyl)propanoyl)piperazin-2-yl)methyl)phenoxy)acetate]", "IC50": "0.5 to 5"}
{"smiles": "COc1ccccc1-c1ccccc1CC(=O)N1CCNC[C@H]1Cc1ccccc1", "note": "[Example 9, 1-((R)-2-Benzylpiperazin-1-yl)-2-(2′-methoxybiphenyl-2-yl)ethanone]", "IC50": "5 to 50"}
{"smiles": "O=C(COc1cccc2ccccc12)N1CCNC[C@H]1Cc1ccccc1", "note": "[Example 15, (R)-1-(2-Benzylpiperazin-1-yl)-2-(naphthalen-1-yloxy)ethanone]", "IC50": "5 to 50"}
{"smiles": "CC(=O)NCc1cc(C)ccc1Oc1ccccc1CCC(=O)N1CCNC[C@H]1Cc1ccccc1", "note": "[Example 40, (R)—N-(2-(2-(3-(2-benzylpiperazin-1-yl)-3-oxopropyl)phenoxy)-5-methylbenzyl)acetamide]", "IC50": "< 0.5"}
{"smiles": "CC(=O)NCCc1cc(C)ccc1Oc1cc(C)ccc1CCC(=O)N1CCNC[C@H]1Cc1ccccc1", "note": "[Example 27]", "IC50": "< 0.5"}
